Consider 18 molecules from patent publication US20030207812A1, “Cd45 inhibitors” (priority 2002, published 2003).

A value given as a limit tells only on which side of the number the result lay.

For one data set, the system named is T cells (PBMC). Briefly: cells. Format: cell-based, human. Particulars: human PBMC, OKT3 30 ng/mL, [3H]thymidine; read-out: T cell prolif. IC50. The procedure:
Cell isolation and T cell proliferation assay:
Whole blood was obtained from healthy human blood donors. Peripheral blood mononuclear cells (“PBMC”) were isolated using Lymphoprep density-gradient centrifugation (Nycomed Amersham, Oslo, Norway), washed, counted and resuspended at 2×10^6 cells/mL in RPMI 1640 medium containing glutamine, 0.1 mg/mL gentamycin and 10% heat inactivated human serum. PBMC were transferred to 96-well plates (2×10^5 cells/well) containing compound or vehicle control, with the final concentration of DMSO not to exceed 0.3%, and incubated for 1 hour before addition of the activating anti-CD3 antibody, OKT3 (30ng/mL). After 24 hours in culture, the cells were pulsed with [^3H]thymidine (1 μCi/well) overnight and harvested the next day onto 96-well Packard GF/C filter plates using a Packard Cell Harvester (Packard Instruments, Meriden, Conn.). The filter plate was dried, the bottom of the plate sealed, 25 μL of Microscint 20 scintillation fluid added to each well, the top of the plate sealed with TopSeal-A, and the plate counted on a Packard TopCount. The data from the TopCount is transferred into Excel 5 (Microsoft, Redmond, Wash.) and formatted for EC50 determination using Prism software (GraphPad Software, San Diego, Calif.).

Data set [1] has as its target T1, CD45 (Homo sapiens, UniProt P08575).
T1 construct: incubating the cytosolic portion of CD45 with the compounds and p-nitrophenyl phosphate (pNPP); purchased BIOMOL (Plymouth Meeting, Pa.)
T1 sequence (P08575 599-1306 limits assumed): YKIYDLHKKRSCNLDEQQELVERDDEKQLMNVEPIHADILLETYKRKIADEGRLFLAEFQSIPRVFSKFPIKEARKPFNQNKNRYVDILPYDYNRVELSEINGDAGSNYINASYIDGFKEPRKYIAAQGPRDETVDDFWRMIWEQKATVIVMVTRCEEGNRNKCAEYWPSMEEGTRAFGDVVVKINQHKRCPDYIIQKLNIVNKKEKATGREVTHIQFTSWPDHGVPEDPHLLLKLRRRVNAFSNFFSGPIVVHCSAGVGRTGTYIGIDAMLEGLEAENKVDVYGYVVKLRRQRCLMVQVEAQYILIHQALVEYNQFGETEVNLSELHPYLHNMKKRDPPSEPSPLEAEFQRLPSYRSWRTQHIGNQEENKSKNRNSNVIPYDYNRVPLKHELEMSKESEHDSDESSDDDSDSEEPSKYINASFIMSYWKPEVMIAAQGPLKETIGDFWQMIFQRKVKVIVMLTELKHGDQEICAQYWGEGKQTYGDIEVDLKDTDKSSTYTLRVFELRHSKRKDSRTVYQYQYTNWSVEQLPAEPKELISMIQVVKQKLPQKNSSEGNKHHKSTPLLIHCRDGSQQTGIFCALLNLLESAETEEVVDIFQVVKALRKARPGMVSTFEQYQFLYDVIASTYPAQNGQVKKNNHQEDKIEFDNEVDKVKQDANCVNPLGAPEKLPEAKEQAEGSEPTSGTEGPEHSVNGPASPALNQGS
Briefly: Phosphatase assay using pNPP as substrate. The conditions noted are these: CD45 phosphatase, pNPP substrate, pH 7.0; read-out: pNPP IC50. Format: biochemical. The procedure: Phosphatase assay using pNPP as substrate:
CD45 enzyme was obtained from BIOMOL (Plymouth Meeting, Pa.). Phosphatase activity was assayed in a buffer containing final concentrations of 25 mM imidazole at pH 7.0, 50 mM NaCl, 2.5 mM ethylenediaminetetraacetic acid (“EDTA”), 5 mM dithiothreitol (“DTT”) and 10 μg/mL bovine serum albumin (“BSA”) using pNPP as a substrate.

Data set [2] is described as follows: Cytotoxicity assay (Calcein-AM uptake). Particulars: human, PHA-expanded T-cell lymphoblasts from PBMC.
In data set [3] the target is T1, CD45. As to the kind of experiment: Phosphatase assay using lck 10-mer as substrate. The conditions noted are these: CD45 phosphatase, lck carboxy-terminal peptide TEGQpYQPQP substrate, pH 7.2; read-out: Ick IC50. Format: biochemical. The procedure:
Phosphatase assay using lck 10-mer as substrate:
Phosphatase activity was assayed in 96 well plates in a buffer containing final concentrations of 25 mM HEPES at pH 7.2, 5 mM DTT and 10 μg/mL BSA using the lck carboxy-terminal peptide TEGQpYQPQP as the substrate (Cho, H., Krishnaraj, R., Itoh, M., Kitas, E., Bannwarth, W., Saito, H., Walsh, C. T. 1993. Substrate specificities of catalytic fragments of protein tyrosine phosphatases (HPTPb, LAR, and CD45) toward the phosphotyrosylpeptide substrates and thiophosphotyrosylated peptides as inhibitors. Protein Science 2:977-984). Compounds were tested in a range from 30 to 0.01 μM in a final concentration of 5% DMSO. Enzyme was incubated with substrate with or without compound, at room temperature for 1.5 h. At the end of the incubation period, BIOMOL “Green Reagent” (BIOMOL, Plymouth Meeting, Pa.) was added to each well, the plates incubated at room temperature for 30 min and absorbance read at 620 nm.

Consider `CC(C)CNC(=O)[C@H](CCC(N)=O)NC(=O)CNC(=O)c1ccc2c(c1)-c1ccccc1C(=O)C2=O` [Example 23], for which the results for the IC50 in the data set with T cells (PBMC), at CD45 [1] and on CD45 [3] were 20000 nM, 1100 nM and 3 µM, respectively. Moreover, the CC50 (as a rule, the concentration giving 50% cytotoxicity) in data set [2] is > 30 µM.
For `COC(=O)CCC(=O)Nc1cccc2c1-c1ccccc1C(=O)C2=O` [Example 63, N-(9,10-Dioxo-9,10-dihydro-phenanthren-4-yl)-succinamic Acid Methyl Ester], the IC50 (commonly the concentration that gives 50% inhibition) with T cells (PBMC) stood at 1200 nM; at CD45 [1] it was 700 nM; at CD45 [3] it was 2.6 µM. In addition, in data set [2], the CC50 was 8 µM.
Turning to `COC(=O)CCCCCCC(=O)Nc1ccc2c(c1)C(=O)C(=O)c1cccc([N+](=O)[O-])c1-2` [Example 64, 7-(5-Nitro-9,10-dioxo-9,10-dihydro-phenanthren-2-ylcarbamoyl)-heptanoic Acid Methyl Ester], the IC50 in the data set with T cells (PBMC) was 4000 nM; at CD45 [1] it was 1100 nM; on CD45 [3], > 30 µM. Besides, the CC50 in data set [2] was 14 µM.
Regarding `COC(=O)CCCC(=O)Nc1ccc2c(c1)C(=O)C(=O)c1cccc([N+](=O)[O-])c1-2` [Example 65, 4-(5-Nitro-9,10-dioxo-9,10-dihydro-phenanthren-2-ylcarbamoyl)-butyric Acid Methyl Ester], the IC50 with T cells (PBMC) came out at 600 nM; on CD45 [1], 1100 nM; at CD45 [3], 3.1 µM. Also, in data set [2], the CC50 is 15 µM.
In the same order, the values of `COC(=O)CCC(=O)Nc1ccc2c(c1)C(=O)C(=O)c1cccc([N+](=O)[O-])c1-2` [Example 66, N-(5-Nitro-9,10-dioxo-9,10-dihydro-phenanthren-2-yl)-succinamic Acid Methyl Ester] are 3500 nM, 900 nM, 1.8 µM and 13 µM.
In the same order, the values of `COC(=O)CCCC(=O)Nc1cccc2c1-c1ccccc1C(=O)C2=O` [Example 67, 4-(9,10-Dioxo-9,10-dihydro-phenanthren-4-ylcarbamoyl)-butyric Acid Methyl Ester] are 800 nM, 1000 nM, 2.2 µM and 4 µM.
With `COC(=O)CCCCCCC(=O)Nc1cccc2c1-c1ccccc1C(=O)C2=O` [Example 68, 7-(9,10-Dioxo-9,10-dihydro-phenanthren-4-ylcarbamoyl)-heptanoic Acid Methyl Ester], the values for the IC50 in the data set with T cells (PBMC), at CD45 [1] and at CD45 [3] were 1800 nM, 1000 nM and 3.2 µM, respectively. For the same molecule, the CC50 in data set [2] was 7.5 µM.
With `COC(=O)CCCCCCCCC(=O)Nc1cccc2c1-c1ccccc1C(=O)C2=O` [Example 69, 9-(9,10-Dioxo-9,10-dihydro-phenanthren-4-ylcarbamoyl)-nonanoic Acid Methyl Ester], the figures for the 50% inhibitory concentration (IC50) in the data set on T cells (PBMC), on CD45 [1] and on CD45 [3] were 4600 nM, 600 nM and 4.8 µM, respectively. In data set [2], the CC50 is 14 µM.
Take `COC(=O)CCCC(=O)Nc1ccc2c(c1)C(=O)C(=O)c1ccccc1-2` [Example 70, 4-(9,10-Dioxo-9,10-dihydro-phenanthren-2-ylcarbamoyl)-butyric Acid Methyl Ester]: the results for the IC50 in the data set on T cells (PBMC), at CD45 [1] and at CD45 [3] were 500 nM, 400 nM and 4.7 µM, respectively. In addition, the CC50 in data set [2] is 3 µM.
Turning to `COC(=O)CCC(=O)Nc1ccc2c(c1)C(=O)C(=O)c1cccc(NC(=O)CCC(=O)OC)c1-2` [Example 73, N-[5-(3-Methoxycarbonyl-propionylamino)-9,10-dioxo-9,10-dihydro-phenanthren-2-yl]-succinamic Acid Methyl Ester], the half-maximal inhibitory concentration (IC50) turned out to be 5000 nM with T cells (PBMC), 500 nM at CD45 [1] and 3 µM on CD45 [3]. The CC50 in data set [2] was 11 µM.
For the molecule `COC(=O)CCCC(=O)Nc1ccc2c(c1)C(=O)C(=O)c1cccc(NC(=O)CCCC(=O)OC)c1-2` [Example 74, 4-[5-(4-Methoxycarbonyl-butyrylamino)-9,10-dioxo-9,10-dihydro-phenanthren-2-ylcarbamoyl]-butyric Acid Methyl Ester], the half-maximal inhibitory concentration (IC50) with T cells (PBMC) worked out at 2600 nM; on CD45 [1], 800 nM; at CD45 [3], 3.3 µM. Besides, the 50% cytotoxic concentration (CC50) in data set [2] was 19 µM.
Consider `COC(=O)CCCCCCC(=O)Nc1ccc2c(c1)C(=O)C(=O)c1cccc(NC(=O)CCCCCCC(=O)OC)c1-2` [Example 75, 7-[5-(7-Methoxycarbonyl-heptanoylamino)-9,10-dioxo-9,10-dihydro-phenanthren-2-ylcarbamoyl]-heptanoic Acid Methyl Ester], for which the IC50 is 2600 nM in the data set with T cells (PBMC), 800 nM at CD45 [1] and 10 µM on CD45 [3]. Moreover, the CC50 in data set [2] was 13 µM.
Take `COC(=O)CCCCCCCCC(=O)Nc1ccc2c(c1)C(=O)C(=O)c1cccc(NC(=O)CCCCCCCCC(=O)OC)c1-2` [Example 76, 9-[5-(9-Methoxycarbonyl-nonanoylamino)-9,10-dioxo-9,10-dihydro-phenanthren-2-ylcarbamoyl]-nonanoic Acid Methyl Ester]: the results for the IC50 with T cells (PBMC), on CD45 [1] and at CD45 [3] were 7000 nM, 9300 nM and > 30 µM, respectively. Moreover, the CC50 in data set [2] is > 30 µM.
In the case of `COC(=O)CCCC(=O)Nc1ccc2c(c1)-c1ccccc1C(=O)C2=O` [Example 77, 4-(9,10-Dioxo-9,10-dihydro-phenanthren-3-ylcarbamoyl)-butyric Acid Methyl Ester], the IC50 with T cells (PBMC) came out at 1600 nM; on CD45 [1], 800 nM; on CD45 [3] it was 2.9 µM. Moreover, in data set [2], the cytotoxic concentration (CC50) is 9 µM.
In the same order, the values of `COC(=O)CCC(=O)Nc1ccc2c(c1)C(=O)C(=O)c1ccccc1-2` [Example 80, N-(9,10-Dioxo-9,10-dihydro-phenanthren-2-yl)-succinamic Acid Methyl Ester] are 700 nM, 5900 nM, 4.9 µM and 6.5 µM.
`CC(=O)Nc1ccc2c(c1)C(=O)C(=O)c1ccccc1-2` [Example 81, N-(9,10-Dioxo-9,10-dihydro-phenanthren-2-yl)-acetamide]: the IC50 with T cells (PBMC) worked out at 200 nM; on CD45 [1], 1200 nM; on CD45 [3] it was 2.5 µM. The CC50 in data set [2] was 0.9 µM.
On to `Nc1ccc2c(c1)C(=O)C(=O)c1cccc([N+](=O)[O-])c1-2` [Example 84, 2-amino-5-nitro-phenanthrene-9,10-dione], for which the IC50 turned out to be 700 nM with T cells (PBMC), 800 nM on CD45 [1] and 2.6 µM on CD45 [3]. Besides, the half-maximal cytotoxic concentration (CC50) in data set [2] was 4 µM.
In the same order, the values of `Nc1ccc2c(c1)C(=O)C(=O)c1cccc(N)c1-2` [Example 85, 2,5-diamino-phenanthrene-9,10-dione] are 500 nM, 1400 nM, 2.8 µM and 4 µM.
